{"source": "patent US20130303376A1", "about": "“METHODS OF IMPROVING PLANT GROWTH” (Bayer CropScience AG, priority 2007, published 2013)", "format_in_all_cases": "in vivo", "key": {"[1]": {"system": "Solanum lycopersicum ‘Rentita’", "assay": "Shoot length test on tomatoes under oxygen deficiency conditions in the nutrient solution", "conditions": "1.0 mg a.i./plant; floating box, nutrient solution not aerated (oxygen deficiency stress); average maximum shoot length after 19 d", "experimental": "To prepare a suitable solution of the preparation, 1 part by weight of active substance is mixed with water to give the desired concentration.\n(§1) Tomato seeds (Solanum lycopersicum ‘Rentita’) are grown in rock wool. After germination, the rock wool blocks are transferred into a floating box provided with the solution of the preparation and grown on under suitable climatic conditions.\n(§2) The nutrient solution of the floating box was not aerated (oxygen deficiency stress).\nAfter the desired period of time, the maximum shoot length per tomato plant is measured, and the average shoot length per floating box and treatment is calculated."}, "[2]": {"system": "Solanum lycopersicum ‘Rentita’", "assay": "Root growth test of tomatoes under oxygen deficiency conditions in the nutrient solution", "conditions": "1.0 mg a.i./plant; floating box, nutrient solution not aerated (oxygen deficiency stress); average maximum root length after 12 d", "experimental": "To prepare a suitable solution of the preparation, I part by weight of active substance is mixed with water to give the desired concentration.\nas §1, §2\nAfter the desired period of time, the maximum length of the root per tomato plant is measured, and the average root length per floating box and treatment is calculated."}, "[3]": {"system": "Botrytis cinerea", "assay": "Drench application for controlling Botrytis cinerea (grey mould) on tomatoes", "set-up": "Disease level, replicates 1-9 / Disease level Ø / Disease level and shed leaves: scale not given here", "conditions": "tomato; for Disease level Ø / Shed leaves Ø / Disease level, replicates 1-9 / Shed leaves, replicates 1-9 / Disease level and shed leaves: 10 d post-inoculation, drench, all actives 5 d before inoculation; for Disease level Ø / Shed leaves Ø / Disease level, replicates 1-9 / Shed leaves, replicates 1-9: I-34/I-7 10 mg a.i./plant, fluopyram 20 mg a.i./plant; for Disease level Ø / Shed leaves Ø: mean of 9; for Disease level, replicates 1-9 / Shed leaves, replicates 1-9: single replicates; for Disease level and shed leaves: sum of the two Ø", "experimental": "To control Botrytis cinerea (grey mould) on tomatoes, tomato plants which had been grown in peaty soil were treated with the compounds I-34 or I-7 alone or in combination with the fungicide fluopyram (drench application) 5 or 10 days before being inoculated with Botrvtis cinerea. [table] The inoculation with Botrytis cinerea was carried out at the stated points in time (5 or 10 days after drench application of compound I-34, I-7 and/or fluopyram). Inoculation density: 15 000 spores/ml, approx. 33 ml of spore suspension/plant. The disease level of the plants was evaluated 10 days after the inoculation with Botrytis cinerea."}, "[4]": {"system": "Solanum lycopersicum ‘Rentita’", "assay": "Leaf biomass test on tomatoes under oxygen deficiency conditions in the nutrient solution", "conditions": "1.0 mg a.i./plant, floating box, nutrient solution not aerated (oxygen deficiency stress)", "description": "(§3) To prepare a suitable solution of the preparation, 1 part by weight of formulated product is mixed with water to give the desired concentration.\n(§4) Wheat kernels (Triticum aestivum ‘Dekan’) or tomato seeds (Solanum lycopersicum ‘Rentita’) are sown in compost and grown under suitable climatic conditions in a floating box provided with the solution of the preparation. The nutrient solution of the floating box was not aerated (oxygen deficiency stress).\n(§5) After the desired period of time, the leaf biomass per wheat or tomato plant is measured, and the average weight per floating box and treatment is calculated."}, "[5]": {"system": "Triticum aestivum ‘Dekan’", "assay": "Leaf biomass test on wheat under oxygen deficiency conditions in the nutrient solution", "conditions": "0.5 mg a.i./plant, floating box, nutrient solution not aerated (oxygen deficiency stress)", "description": "as §3, §4, §5"}, "[6]": {"system": "Triticum aestivum ‘Dekan’", "assay": "Root growth test of wheat under oxygen deficiency conditions in the nutrient solution", "conditions": "0.5 mg a.i./plant; floating box, nutrient solution not aerated (oxygen deficiency stress); average maximum root length after 14 d", "experimental": "To prepare a suitable solution of the preparation, I part by weight of formulated product is mixed with water to give the desired concentration.\nWheat kernels (Triticum aestivum ‘Dekan’) are sown in compost and grown under suitable climatic conditions in a floating box provided with the solution of the preparation. The nutrient solution of the floating box was not aerated (oxygen deficiency stress).\nAfter the desired period of time, the maximum length of the root per wheat plant is measured, and the average root length per floating box and treatment is calculated."}}, "note": "“And” between values parts separate entries of the source, which are not always exact repeats. Identical values can stand only once.", "data": [{"smiles": "O=C1C=C(N(CCF)Cc2ccc(Cl)nc2)CO1", "note": "[Compound (I-6), 4-{[(6-chloropyrid-3-yl)methyl](2-fluoroethyl)amino}furan-2(5H)-one]", "values": [{"measurement": "Shoot length of tomatoes: Length in cm after 19 d", "setting": "[1]", "result": 7.33, "unit": "cm"}, {"measurement": "Root growth of tomatoes: Length in cm after 12 d", "setting": "[2]", "result": 11.08, "unit": "cm"}]}, {"smiles": "CN(Cc1cnc(Cl)c(F)c1)C1=CC(=O)OC1", "note": "[Compound (I-8), 4-{[(6-chloro-5-fluoropyrid-3-yl)methyl](methyl)amino}furan-2(5H)-one]", "values": [{"measurement": "Shoot length of tomatoes: Length in cm after 19 d", "setting": "[1]", "result": 6.6, "unit": "cm"}, {"measurement": "Root growth of tomatoes: Length in cm after 12 d", "setting": "[2]", "result": 7.43, "unit": "cm"}]}, {"smiles": "O=C(NCCc1ncc(C(F)(F)F)cc1Cl)c1ccccc1C(F)(F)F", "note": "[Fluopyram, fluopyram, reference compound]", "values": [{"measurement": "Appearance of infected leaf tissue (symptoms of the disease)", "setting": "[3]; 10 d post-inoculation with Botrytis cinerea, FIGS. 4-6, in words", "result": "remains dark and wet"}, {"measurement": "Disease level Ø", "setting": "[3]", "result": 1}, {"measurement": "Shed leaves Ø", "setting": "[3]", "result": 0}, {"measurement": "Disease level, replicates 1-9", "setting": "[3]", "result": "5 (3×) and 2 and 1 (3×) and 3 (2×)"}, {"measurement": "Shed leaves, replicates 1-9", "setting": "[3]", "result": 0}, {"measurement": "Disease level and shed leaves", "setting": "[3]", "result": 11}]}, {"smiles": "CC1OC(=O)C=C1N(C)Cc1ccc(Cl)nc1", "note": "(stereo not drawn) [Compound (I-25), 4-{[(6-chloropyrid-3-yl)methyl](methyl)amino}-5-methylfuran-2(5H)-one]", "values": [{"measurement": "Shoot length of tomatoes: Length in cm after 19 d", "setting": "[1]", "result": 6.8, "unit": "cm"}, {"measurement": "Root growth of tomatoes: Length in cm after 12 d", "setting": "[2]", "result": 9.19, "unit": "cm"}]}, {"smiles": "O=C1C=C(N(Cc2ccc(Cl)nc2)CC(F)F)CO1", "note": "[Compound (I-7), 4-{[(6-chloropyrid-3-yl)methyl](2,2-difluoroethyl)amino}furan-2(5H)-one]", "values": [{"measurement": "Leaf biomass of tomato: Weight in g after 21 d", "setting": "[4]", "result": 19.4, "unit": "g"}, {"measurement": "Leaf biomass of wheat: Weight in g after 22 d", "setting": "[5]", "result": 15.7, "unit": "g"}, {"measurement": "Root growth of wheat: Length in cm after 14 d", "setting": "[6]", "result": 22.1, "unit": "cm"}, {"measurement": "Disease level Ø", "setting": "[3]", "result": 3}, {"measurement": "Shed leaves Ø", "setting": "[3]", "result": 3}, {"measurement": "Disease level, replicates 1-9", "setting": "[3]", "result": "3 (6×) and 2 and 4 and 5"}, {"measurement": "Shed leaves, replicates 1-9", "setting": "[3]", "result": "5 (3×) and 6 and 3 (2×) and 4 and 2 and 1"}, {"measurement": "Disease level and shed leaves", "setting": "[3]", "result": 68}, {"measurement": "Shoot length of tomatoes: Length in cm after 19 d", "setting": "[1]", "result": 7.15, "unit": "cm"}, {"measurement": "Root growth of tomatoes: Length in cm after 12 d", "setting": "[2]", "result": 8.67, "unit": "cm"}]}, {"smiles": "CN(Cc1ccc(Cl)nc1)C1=CC(=O)CC1", "note": "[Compound (I-18), 3-{[(6-chloropyrid-3-yl)methyl](methyl)amino}cyclopent-2-en-1-one]", "values": [{"measurement": "Root growth of tomatoes: Length in cm after 12 d", "setting": "[2]", "result": 7.56, "unit": "cm"}]}, {"smiles": "CN(Cc1ccc(Cl)nc1)C1=CC(=O)OC1", "note": "[Compound (I-34), 4-{[(6-chloropyrid-3-yl)methyl](methyl)amino}furan-2(5H)-one]", "values": [{"measurement": "Disease level Ø", "setting": "[3]", "result": 3}, {"measurement": "Shed leaves Ø", "setting": "[3]", "result": 3}, {"measurement": "Disease level, replicates 1-9", "setting": "[3]", "result": "5 and 2 (4×) and 3 (2×) and 4 (2×)"}, {"measurement": "Shed leaves, replicates 1-9", "setting": "[3]", "result": "3 (3×) and 0 and 4 (3×) and 5 and 2"}, {"measurement": "Disease level and shed leaves", "setting": "[3]", "result": 61}, {"measurement": "Shoot length of tomatoes: Length in cm after 19 d", "setting": "[1]", "result": 6.75, "unit": "cm"}, {"measurement": "Root growth of tomatoes: Length in cm after 12 d", "setting": "[2]", "result": 9.53, "unit": "cm"}]}, {"smiles": "O=C1C=C(N(Cc2ccc(Cl)nc2)C2CC2)CO1", "note": "[Compound (I-31), 4-{[(6-chloropyrid-3-yl)methyl](cyclopropyl)amino}furan-2(5H)-one]", "values": [{"measurement": "Shoot length of tomatoes: Length in cm after 19 d", "setting": "[1]", "result": 6.78, "unit": "cm"}, {"measurement": "Root growth of tomatoes: Length in cm after 12 d", "setting": "[2]", "result": 11.16, "unit": "cm"}]}, {"smiles": "O=C1C=C(N(CCF)Cc2cnc(Cl)c(Cl)c2)CO1", "note": "[Compound (I-14), 4-{[(5,6-dichloropyrid-3-yl)methyl](2-fluoroethyl)amino}furan-2(5H)-one]", "values": [{"measurement": "Root growth of tomatoes: Length in cm after 12 d", "setting": "[2]", "result": 6.97, "unit": "cm"}]}]}
